From patent US20180221329A1, “CIS- AND TRANS-SUFFRUTICOSOL D AS THERAPEUTIC AGENTS” (MIDDLE TENNESSEE STATE UNIVERSITY, priority 2015, published 2018) come the findings set out here.

The test system of assay [1] is U2OS (human osteosarcoma) cells. Nature of the assay: Cell proliferation assay (AlamarBlue), U2OS. The conditions noted are these: for Selectivity: U2OS versus normal HMEC cells; for IC50: U2OS, 48 h, AlamarBlue. Format: cell-based. As to the method:
Cell culture. Four human cancer cell lines including A549 (lung carcinoma), BT20 (estrogen receptor-negative human breast adenocarcinoma), MCF-7 (estrogen receptor-positive human breast adenocarcinoma) and U2OS (human osteosarcoma) were purchased from American Type Culture Collection (ATCC). An A549 cell line that stably expresses Green Fluorescent Protein (GFP) was purchased from Cell BioLabs Inc. (San Diego, Calif., USA). A549, A549-GFP and BT20 cells were cultured in RPMI 1640 media (Sigma-Aldrich, St. Louis, Mo., USA), MCF7 cells were cultured in DMEM medium (ATCC, Manassas, Va., USA), and U20S cells were cultured in McCoy's 5A medium (ATCC, Manassas, Va., USA). As a control, HMEC cells (primary human mammary breast epithelial cells) were purchased from ATCC and cultured in McCoy's 5A medium. All medium contained 10% FBS (Sigma-Aldrich, St. Louis, Mo., USA) and 1% streptomycin and penicillin (Sigma-Aldrich, St. Louis, Mo., USA). These cells were incubated in a humid environment with 5% CO2 at 37° C.
Cell proliferation assay. The resazurin reduction reagent AlamarBlue (Invitrogen, Frederick, Md., USA) was used to evaluate the cytotoxicity of the compounds. Cells were plated at a density of 5×10^3 cells per well in 96-well microplates with 100 μl culture medium, and were allowed to attach for 16 h prior to treatment. Next, all the medium was replaced with medium containing the cis- or trans-suffruticosol D compounds at seven different concentrations: 320, 100, 32, 10, 3.2, 1.0, and 0.32 μM. The cells were placed in an incubator for 48 h at 37° C. Cells that were treated with medium-containing vehicle (1% DMSO) only serve as negative control. Subsequently, AlamarBlue solution was added to the medium and the cells were incubated in the CO2 incubator for 1 h. The fluorescent intensity change of the dye was measured at Ex 555 nm and Em 590 nm using a plate reader (Molecular Devices, Sunnyvale, Calif., USA). The cytotoxicity was examined by determining by IC50, the dose that inhibited 50% of cell growth, using GraphPad Prism software (GraphPad Software, La Jolla, Calif., USA).
Table 1. IC50 values of cis- and trans-suffruticosol D in selected cancer and normal cell lines. Cells were treated with various concentrations of cis- or trans-suffruticosol D for 48 h, and the viability of cells was evaluated with AlamarBlue dye.
Background: The colour change of resazurin is a common sign of viable cells or microbes.

The test system of another assay is A549 cells. Nature of the assay: Apoptosis assay (Annexin V/7-AAD flow cytometry). Format: cell-based, human. The conditions noted are these: 24 h. As for the experimental part: FIGS. 2A-E depict induction of apoptosis by cis- and trans-suffruticosol D in A549 cells. After 24 h treatment by cis- or trans-suffruticosol D, A549 cells were stained with Annexin V/7-amino-actinomycin D (7-AAD) and the percentage of apoptotic cells, as measured by fluorescence intensity, was assessed by flow cytometry. Cells treated with the vehicle, 1% dimethylsulfoxide, DMSO, only served as a negative control.
Apoptosis assay. The FlowCellect Annexin Red Kit (EMD Millipore, Billerica, Mass., USA) was used to determine the apoptosis rate in A549 cells according to the manufacturer's instructions. Briefly, A549 cells were plated in 96-well plates. After a 24 h treatment with cis- or trans-suffruticosol D at concentrations of 100, 32, and 10 μM, the floating and attached cells were collected for analysis. The cells were centrifuged at 700×g for 7 min and were resuspended in 100 μL Assay Buffer (EMD Millipore, Billerica, Mass., USA). Afterwards, the cells were stained with annexin-V for 15 min and 7-amino-actinomycin D (7-AAD) for 5 min, and examined with a Guava EasyCyte Flow Cytometer (EMD Millipore, Billerica, Mass., USA). Data was analyzed using Guava InCyte software.
(Flow cytometry measures light scatter and fluorescence of single cells or particles in a stream.)

Assay [2] deals with apoptotic proteins in A549 cells. Nature of the assay: Apoptosis antibody array. Format: cell-based, human. Particulars: 50 μM, 6 h. As for the experimental part: F, Effect of cis- or trans-suffruticosol D on key regulatory proteins of apoptosis, Hsp60, Hsp70, survivin, and X-linked inhibitor of apoptosis protein (XIAP) (n=4).
Apoptosis antibody array. The Human Apoptosis Antibody Array Kit (RayBiotech, Inc., Norcross, Ga. USA) was used to evaluate apoptotic protein expression according to the manufacturer's instructions. A549 cells were plated at 8,000 cells/well intensity in a 96-well plate and then treated with cis or trans-suffruticosol D at a concentration of 50 μM for 6 h. The cells were lysed in lysis buffer with protease inhibitors. The cell lysates were concentrated using a protein concentration column (EMD Millipore, Billerica, Mass., USA) to a total protein concentration of 2 mg/ml. The samples were then diluted 10 fold with assay buffer and incubated with an array membrane for 2 h at room temperature, and washed with washing buffer five times. Subsequently, the cocktail of biotin-conjugated antibody mix was added to the membrane and incubated overnight at 4° C. The samples were then incubated with HRP-conjugated streptavidin for 2 h at room temperature and chemiluminescence substrate was used to detect the signal. Image Studio software (LI-COR Biotechnology) was used to quantify the intensity of each array dot and then normalized to the internal control.

The test system of assay [3] is NF-κB p65 nuclear translocation. Nature of the assay: NF-κB nuclear translocation assay (HCS). Format: cell-based, human. Particulars: 4 h, then TNF-α 30 min, A549. As to the method:
FIGS. 6A and 6B depict inhibition of NF-κB translocation by cis- and trans-suffruticosol D in A549 cells. A549 cells were treated with various concentrations of cis- or trans-suffruticosol D for 4 h and then stimulated with […] TNF-α for 30 min. Cells treated with TNF-α alone or the vehicle only served as controls. The NF-κB translocation index was measured by the fluorescent intensity difference between the nucleus and cytoplasm.
NF-κB nuclear translocation assay. A Multiplexed NF-κB activation HCS Kit (Thermo Scientific, Waltham, Mass., USA) was used to assess NF-κB nuclear translocation. A549 cells were pre-treated with different concentrations of cis- or trans-suffruticosol D for 4 h, then 10 ng/mL of TNF-α was added to the cells for an additional 30 min. After treatment, cells were fixed and permeabilized prior to detection. NF-κB distribution was detected by adding NF-κB p65 primary antibodies and then staining with a secondary antibody conjugated with DyLight 549 and Hoechst dye (Thermo Scientific, Waltham, Mass., USA). […] Cells were imaged using an Arrayscan VTI HCS reader (Thermo Scientific, Waltham, Mass., USA). Data on the mean difference of NF-κB fluorescent intensity between the nuclear and cytoplasmic areas were collected and analyzed by vHCS Scan software.

A word on the IC50: it is the midpoint of a concentration-inhibition curve. Read a high IC50 as a need for much substance.

In assay [1] (listed as cis-SD), `Oc1ccc(C=Cc2c3c(cc4c2[C@@H](c2cc(O)cc(O)c2)[C@H](c2ccc(O)cc2)O4)O[C@H](c2ccc(O)cc2)[C@@H]3c2cc(O)cc(O)c2)cc1` [cis-suffruticosol D] registered a Selectivity of 11 and an IC50 of 24.6 ± 4.4 µM. The “A549 cells induced into apoptosis” value in the assay with A549 cells (10 μM) was 22.2%. Also, the “A549 cells induced into apoptosis” value in the assay on A549 cells (32 μM) came to 27.1%. Further, in the assay with A549 cells (100 μM), the “A549 cells induced into apoptosis” value was 45.3%. Further, in assay [2], the Hsp60 expression result is recorded as “significant down regulation”, the Hsp70 expression entry is on record as “significant down regulation”, the “X-linked inhibitor of apoptosis protein (XIAP) expression” value is “significant down regulation” and the survivin expression result is given as “significant down regulation”. Besides, the “inhibition of NF-κB activation (nuclear translocation index)” value in assay [3] (100 μM only) is given as “significant inhibition”.

On to `Oc1ccc(/C=C/c2c3c(cc4c2[C@@H](c2cc(O)cc(O)c2)[C@H](c2ccc(O)cc2)O4)O[C@H](c2ccc(O)cc2)[C@@H]3c2cc(O)cc(O)c2)cc1` [trans-suffruticosol D], for which, in assay [1] (listed as trans-SD), the Selectivity is 12.9 and 11.3 ± 2.3 µM corresponded to half-maximal inhibition (IC50). For the same molecule, the “A549 cells induced into apoptosis” value in the assay with A549 cells (10 μM) amounted to 30.1%. In the assay with A549 cells (32 μM), the “A549 cells induced into apoptosis” value is listed as 39.8%. In addition, the “A549 cells induced into apoptosis” value in the assay with A549 cells (100 μM) came out at 41.9%. Further, in assay [2], the Hsp60 expression result was “significant down regulation”, the Hsp70 expression entry was “significant down regulation”, the “X-linked inhibitor of apoptosis protein (XIAP) expression” value is given as “significant down regulation” and the survivin expression entry was “significant down regulation”. For the same molecule, in assay [3] (all the tested concentrations), the “inhibition of NF-κB activation (nuclear translocation index)” value was “significant inhibition”.
